Experimental data from ChEMBL document CHEMBL5729517, “BTK inhibitor compounds” (2023).

Experiments:
[1] = biological target: Tyrosine-protein kinase BTK (Homo sapiens, UniProt Q06187); assay: BTK and EGFR in Vitro Assay: The BTK and EGFR biochemical assays utilize LANTHASCREEN® Eu Kinase Binding Assays from Thermo Fisher Scientific, measuring the binding of the kinase with a […] tracer. The assay buffer consists of 50 mM HEPES pH 7.5, 0.01% BRU™-35, 10 mM MgCl2, 1 mM EGTA, and 1 mM DTT. The test compounds are diluted and added to the assay plate with a Labcyte ECHO® 555 liquid handler. The compounds are tested in 10 point dose response curves (100 μM-0.005 μM) with a maximum DMSO concentration of 1%. The assays are performed in 20 μL in low-volume 384-well white proxiplates. For the BTK assay, the concentration of full-length His-labeled BTK in the assay is 5 nM, the Eu-anti-His antibody is 2 nM, and the kinase tracer 236 is 60 nM. For the EGFR assay, the concentration of truncated (amino acids 668-1210) GST-labeled EGFR is 5 nM, the Eu-anti-GST antibody is 2 nM, and the kinase tracer 199 is 10 nM. The components of the assay (compound, enzyme/antibody, tracer) are assembled and incubated for 30 min prior to being read on a Perkin-Elmer EnVision with excitation at 340 nm, tracer emission at 665 nm, and antibody emission at 615 nm. The signal ratio is converted to percent inhibition using the following equation: % Inhibition=100−[(Test Compound−Median Minimum)/(Median Maximum−Median Minimum)×100].
Sequence of Tyrosine-protein kinase BTK (Q06187 whole entry, the tested form may be a part): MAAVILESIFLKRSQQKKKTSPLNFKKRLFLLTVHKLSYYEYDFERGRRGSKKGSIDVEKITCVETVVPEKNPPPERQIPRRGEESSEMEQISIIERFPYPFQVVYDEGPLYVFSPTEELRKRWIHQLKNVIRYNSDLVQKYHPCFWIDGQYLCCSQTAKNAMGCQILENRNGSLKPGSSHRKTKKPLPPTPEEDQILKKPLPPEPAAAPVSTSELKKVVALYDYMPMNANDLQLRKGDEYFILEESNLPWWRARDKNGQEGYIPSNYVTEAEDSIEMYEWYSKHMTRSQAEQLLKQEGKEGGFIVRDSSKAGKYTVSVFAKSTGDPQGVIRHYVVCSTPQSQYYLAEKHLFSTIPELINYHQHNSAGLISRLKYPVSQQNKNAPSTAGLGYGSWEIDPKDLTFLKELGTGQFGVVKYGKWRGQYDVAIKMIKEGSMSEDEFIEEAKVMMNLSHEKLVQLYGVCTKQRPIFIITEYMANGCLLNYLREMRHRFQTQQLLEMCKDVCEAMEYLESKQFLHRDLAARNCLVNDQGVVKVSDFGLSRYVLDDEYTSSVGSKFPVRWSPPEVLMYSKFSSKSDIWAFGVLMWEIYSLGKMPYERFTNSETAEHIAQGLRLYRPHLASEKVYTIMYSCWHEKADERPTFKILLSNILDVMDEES

[2] = biological target: Epidermal growth factor receptor (Homo sapiens, UniProt P00533); assay: BTK and EGFR in Vitro Assay: The BTK and EGFR biochemical assays utilize LANTHASCREEN® Eu Kinase Binding Assays from Thermo Fisher Scientific, measuring the binding of the kinase with a fluorinated tracer. The assay buffer consists of 50 mM HEPES pH 7.5, 0.01% BRU™-35, 10 mM MgCl2, 1 mM EGTA, and 1 mM DTT. […] The compounds are tested in 10 point dose response curves (100 μM-0.005 μM) with a maximum DMSO concentration of 1%. The assays are performed in 20 μL in low-volume 384-well white proxiplates. […] The signal ratio is converted to percent inhibition using the following equation: % Inhibition=100−[(Test Compound−Median Minimum)/(Median Maximum−Median Minimum)×100].
Sequence of Epidermal growth factor receptor (P00533 whole entry): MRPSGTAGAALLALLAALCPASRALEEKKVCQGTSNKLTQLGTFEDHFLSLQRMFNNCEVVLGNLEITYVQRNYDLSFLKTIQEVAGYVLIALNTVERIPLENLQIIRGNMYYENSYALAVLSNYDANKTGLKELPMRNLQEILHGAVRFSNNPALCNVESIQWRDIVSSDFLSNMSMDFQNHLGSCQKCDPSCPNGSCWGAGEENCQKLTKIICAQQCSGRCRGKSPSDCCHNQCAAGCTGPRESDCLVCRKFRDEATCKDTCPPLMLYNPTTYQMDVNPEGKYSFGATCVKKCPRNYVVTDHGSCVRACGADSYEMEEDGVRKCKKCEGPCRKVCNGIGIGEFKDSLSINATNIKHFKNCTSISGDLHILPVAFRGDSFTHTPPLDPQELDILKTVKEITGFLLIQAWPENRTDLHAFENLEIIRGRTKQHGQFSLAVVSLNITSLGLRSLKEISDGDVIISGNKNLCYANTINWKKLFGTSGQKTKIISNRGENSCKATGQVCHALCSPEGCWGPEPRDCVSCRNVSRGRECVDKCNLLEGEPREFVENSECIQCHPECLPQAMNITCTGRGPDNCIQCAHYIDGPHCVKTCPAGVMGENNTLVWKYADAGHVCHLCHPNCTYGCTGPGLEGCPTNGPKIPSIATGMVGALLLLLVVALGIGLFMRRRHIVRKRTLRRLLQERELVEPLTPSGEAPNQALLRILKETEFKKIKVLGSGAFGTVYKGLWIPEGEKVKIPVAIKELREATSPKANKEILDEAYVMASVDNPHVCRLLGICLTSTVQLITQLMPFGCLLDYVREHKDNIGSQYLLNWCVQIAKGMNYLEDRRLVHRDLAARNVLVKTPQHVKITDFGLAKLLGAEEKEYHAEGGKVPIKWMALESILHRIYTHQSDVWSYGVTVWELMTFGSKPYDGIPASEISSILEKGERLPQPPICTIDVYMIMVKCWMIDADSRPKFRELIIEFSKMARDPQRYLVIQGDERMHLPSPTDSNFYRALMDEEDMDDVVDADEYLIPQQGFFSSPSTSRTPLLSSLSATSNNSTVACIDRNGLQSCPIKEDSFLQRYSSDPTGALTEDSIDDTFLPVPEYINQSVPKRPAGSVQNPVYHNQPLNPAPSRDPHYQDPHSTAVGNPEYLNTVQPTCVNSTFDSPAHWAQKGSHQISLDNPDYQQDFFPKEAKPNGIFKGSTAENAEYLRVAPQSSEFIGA

IC50 [1]	IC50 [2]	Structure (SMILES)
0.00608 µM	8.65 µM	C=CC(=O)N1CC[C@H](Nc2cncc(-c3cnc(Nc4cccc(OC(F)F)c4)nc3)c2)C1
0.0329 µM	16.1 µM	C=CC(=O)N1CC[C@H](Nc2cncc(-c3cnc(Nc4cccc(C)n4)nc3)c2)C1
0.0555 µM	28.5 µM	C=CC(=O)N1CC[C@H](Nc2cncc(-c3cnc(Oc4cccc(OC(F)F)c4)nc3)c2)C1
0.0758 µM	6.52 µM	C=CC(=O)N1CC(Nc2cncc(-c3cnc(Oc4cccc(C#N)c4)nc3)c2)C1
